The text below walks through data of patent US7109245B2, “Vasoconstrictor cannabinoid analogs” (priority 2001, dated 2006).

Entries after “also recorded” stand apart in the source; their conditions may differ. Where two headings read alike, the source gives them in different places.

As a reminder, the EC50 is the concentration that produces a half-maximal response.

One assay concerns ICR mice. Nature of the assay: Blood pressure of pentobarbital-anesthetized ICR mice (femoral artery cannula). It is filed as in vivo, mouse. An excerpt: By way of example, ICR mice were anesthetized with pentobarbital, and polyethylene cannulae were inserted into the femoral artery and vein for monitoring blood pressure and injecting drugs, respectively. Blood pressure was monitored directly by connecting the arterial cannula to a pressure transducer and physiograph.

In assay [1] the test system is Rat isolated mesenteric branch arteries. Nature of the assay: Vasorelaxation of rat isolated mesenteric branch arteries precontracted with phenylephrine, wire myograph. As for the experimental part: Arteries were mounted in a wire myograph, and precontracted with phenylephrine. Relaxation is expressed as % of the phenylephrine-induced vasoconstrictor tone, 0% representing maximal relaxation.
Rat isolated mesenteric branch arteries (˜200 μm in diameter) were precontracted with phenylephrine and measurements were recorded with a wire myograph.

Assay [2] has as its system mesenteric arteries. Nature of the assay: Mesenteric vasodilator response.
For assay [3], the system named is mesenteric arteries. The following applies: cited from earlier work; for dilation of isolated mesenteric arteries: normal rats and mice, CB1 knockout and CB1/CB2 double knockout mice.
Assay [4] deals with brain cannabinoid (CB1) receptor (Homo sapiens, UniProt P21554). The following applies: cited from earlier work.
Another assay relates to rats and mice. The following applies: in vivo; cited from earlier work.
Assay [5] has as its system normal rats and mice, CB1 knockout mice, CB1/CB2 double knockout mice. The following applies: cited from earlier work.
In a further assay the test system is LPS-induced hypotension. Nature of the assay: LPS-induced hypotension in anesthetized mice. Format: in vivo, mouse. An excerpt: Endotoxin was used to induce hypotension in control mice as well as in mice deficient in CB1 or both CB1 and CB2 receptors.
In assay [6] the test system is mesenteric branch arteries isolated from wild-type and CB1 receptor deficient mice. Nature of the assay: Calcium-induced relaxation of mouse isolated mesenteric branch arteries precontracted with norepinephrine. The following applies: 10 μM O-1918.

Sequence of brain cannabinoid (CB1) receptor (P21554 whole entry, species assumed): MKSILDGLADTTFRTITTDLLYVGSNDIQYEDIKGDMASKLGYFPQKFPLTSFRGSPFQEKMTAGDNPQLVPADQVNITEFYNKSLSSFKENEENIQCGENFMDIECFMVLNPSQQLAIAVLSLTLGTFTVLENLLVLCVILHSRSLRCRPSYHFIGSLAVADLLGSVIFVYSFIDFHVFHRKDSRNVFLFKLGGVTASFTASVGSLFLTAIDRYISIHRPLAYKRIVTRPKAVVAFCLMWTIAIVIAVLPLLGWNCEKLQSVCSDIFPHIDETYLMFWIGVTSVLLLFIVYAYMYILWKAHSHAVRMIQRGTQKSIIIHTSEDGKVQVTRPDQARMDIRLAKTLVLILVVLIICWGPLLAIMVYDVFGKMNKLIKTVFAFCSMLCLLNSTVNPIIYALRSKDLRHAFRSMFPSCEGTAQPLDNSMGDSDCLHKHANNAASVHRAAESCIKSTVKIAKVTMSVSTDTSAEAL

As to `C=C(C)[C@@H]1CCC(C)=C[C@H]1c1c(O)cc(O)cc1CCCCC` [Abn-cbd, abnormal cannabidiol], the “effect on blood pressure” value with ICR mice (intravenous injection of 10 mg/kg Abn-cbd) was “transient drop in blood pressure followed by a brief increase and then a more prolonged, significant decrease in pressure”; in assay [5] (normal rats and mice, CB1 knockout and CB1/CB2 double knockout mice) it was “lower blood pressure”. For the same molecule, the “type of agonism in vasorelaxation” value in assay [1] is recorded as “full agonist”. For the same molecule, the EC50 in [1] (Abn-cbd alone, read-out: vasorelaxation EC50) turned out to be 3.3 ± 0.5 µM; in assay [1] (in the presence of 10 μM O-1918, read-out: vasorelaxation EC50 in the presence of O-1918), 26 ± 10 µM. Further, in the assay with mesenteric arteries [2] (100 μM L-NAME and 10 μM indomethacin), the “vasodilator response in presence of L-NAME and indomethacin” value is recorded as “remains unchanged”. The “vasodilation in presence of capsazepine” value in the assay with mesenteric arteries [2] (bolus injection of 4 mg Abn-cbd, 5 μM capsazepine) is listed as “elicited the same long lasting vasodilation”. Besides, the “dilation of isolated mesenteric arteries” value in the assay on mesenteric arteries [3] is “dilate isolated mesenteric arteries”. Moreover, the “binding to CB1 receptor” value in assay [4] is “does not bind to CB1 receptors”. The neurobehavioral effects result with rats and mice was “does not elicit cannabinoid-like neurobehavioral effects”.

On to `CCCCCCC(C)(C)c1cc(O)c2c(c1)OC(C)(C)[C@@H]1CC=C(CO)C[C@@H]21` [HU-210], for which, in [5] (CB1 receptor deficient mice), the “hypotensive effect in CB1 receptor deficient mice” value is “absent”.

As to `C=C(C)C1CCC(C)=CC1c1c(OC)cc(C)cc1OC` (stereo not shown) [O-1918], the “antagonism of hypotensive effect of Abn-cbd” value in the assay with ICR mice (10 mg/kg O-1918, 10 min before 10 mg/kg Abn-cbd, FIG. 1A) was “the prolonged hypotensive phase of the effect of Abn-cbd was absent”. In the assay on ICR mice (10 mg/kg O-1918 injected alone), the “effect on blood pressure of the antagonist alone” value was “did not influence blood pressure”. In the assay on ICR mice (FIG. 1B), the “antagonism of hypotensive effect of HU-210 (CB1/CB2 agonist)” value is “did not antagonize the hypotensive effect of HU-210”. Also, the “prevention of LPS-induced hypotension” value in the assay with LPS-induced hypotension (10 mg/kg O-1918, normal anesthetized mice, 100 mg/kg LPS) is recorded as “prevent the hypotension”. For the same molecule, the “inhibition of LPS-induced hypotension” value with LPS-induced hypotension (pretreatment 1 to 10 mg/kg O-1918, ICR mice, 100 ng/kg LPS i.v., FIG. 3) is “dose-dependently inhibited”. Besides, the “inhibition of calcium-induced relaxation” value in assay [6] is reported as “inhibited the calcium-induced relaxation”. In assay [1] (10 μM O-1918), the “inhibition of vasorelaxation caused by CGRP” value was “did not inhibit the vasorelaxation” and the “inhibition of vasorelaxation caused by carbachol” value is listed as “did not inhibit the vasorelaxation”. Also, in assay [1] (concentrations up to 30 μM), the “effect on vascular tone” value is “did not alter vascular tone”. The “shift of dose-response curve to Abn-cbd” value in assay [1] (preincubation with 1–10 μM O-1918, FIG. 4) is “progressively right-shifted; also recorded: concentration-dependent inhibition of the relaxing effect of Abn-cbd”.

With `Cc1c(C(=O)NN2CCCCC2)nn(-c2ccc(Cl)cc2Cl)c1-c1ccc(Cl)cc1` [SR141716A], the “inhibition of LPS-induced hypotension” value in the assay on LPS-induced hypotension (pretreatment 3 mg/kg SR141716A, wild-type mice, CB1 deficient and CB1/CB2 deficient mice, FIG. 2) is “inhibited; also recorded: could be prevented”.

As for `C=C(C)[C@@H]1CCC(C)=C[C@H]1c1c(O)cc(CCCCC)cc1O` [cannabidiol], the “antagonism of vasodilator effect of Abn-cbd” value in the assay with mesenteric arteries [3] (mesenteric) is on record as “able to antagonize the vasodilator effect of Abn-cbd”. Besides, in the assay on mesenteric arteries [3], the “dilation of isolated mesenteric arteries” value is given as “does not elicit mesenteric vasodilation”. For the same molecule, the neurobehavioral effects entry in the assay with rats and mice was “devoid of neurobehavioral effects”.
